pIC50: −log10 of the molar value.
Each compound was assayed against Cyclin-dependent kinase 1 (Homo sapiens, UniProt P06493) (assay: Inhibition of CDK1).
Cyclin-dependent kinase 1, sequence (P06493 whole entry): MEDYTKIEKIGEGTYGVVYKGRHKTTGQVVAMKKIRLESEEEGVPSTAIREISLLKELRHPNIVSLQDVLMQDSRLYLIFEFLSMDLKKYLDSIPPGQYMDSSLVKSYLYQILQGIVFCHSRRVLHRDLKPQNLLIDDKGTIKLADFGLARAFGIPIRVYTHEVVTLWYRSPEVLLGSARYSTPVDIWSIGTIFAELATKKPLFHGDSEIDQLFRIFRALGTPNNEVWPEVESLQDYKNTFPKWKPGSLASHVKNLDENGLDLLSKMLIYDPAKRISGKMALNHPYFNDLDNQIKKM

SMILES	pIC50
C[C@H](N[C@@H](C)COc1ccccc1)[C@@H](O)c1ccc(O)cc1	5.54
O=C(NCCCO)c1cc(Cl)ccc1O	5.60
CCN(CCO)CCCNc1ccnc2cc(Cl)ccc12	6.08
O=c1c(O)c(-c2ccc(O)c(O)c2)oc2cc(O)cc(O)c12 [QUERCETIN]	6.35
O=Cc1cc(CCCCCCc2ccc(O)c(C=O)c2)ccc1O	5.31
OCCNC(=S)Nc1ccc(C(F)(F)F)cc1	5.85
COC(=O)c1cc(NC(C)=O)ccc1S(=O)(=O)c1ccc(NC(C)=O)cc1C(=O)OC	6.04
OCCSC(=S)Nc1ccc(Cl)c(Cl)c1	5.60
COc1cc(OC)nc(NC(=O)NS(=O)(=O)c2cc(NC=O)ccc2C(=O)N(C)C)n1 [FORAMSULFURON]	5.44
Cc1cc2[nH]c(=S)n([C@@H]3O[C@H](CO)[C@@H](O)[C@H]3O)c2cc1C	5.68
OCCN(CCO)Cc1cc(Cl)c2cccnc2c1O	5.49
